Values quoted from earlier work, collected in paper PMC6062831 (ACS Central Science, 2018).
pKi: −log10 of the molar value. Where two headings read alike, the source gives them in different places.

Key:
human GUS ortholog = conditions: cited from earlier work
Escherichia coli GUS = conditions: cited from earlier work

| Structure (SMILES) | inhibition of human GUS ortholog (human GUS ortholog) | pKi (Escherichia coli GUS; read-out: Ki against E. coli GUS) | pKi (Escherichia coli GUS; read-out: Ki against Escherichia coli GUS) |
| --- | --- | --- | --- |
| O=C(O)[C@@H]1[C@@H](O)[C@H](O)[C@@]2(O)CC[C@@H]1N2 [uronic-noeurostegine] | potent inhibitors | 7.22 |  |
| O=C(O)[C@@H](O)[C@H]1OC(=O)[C@H](O)[C@H]1O [D-glucaro-1,4-lactone] | potent inhibitors |  | 4.72 |
